Experimental data published in patent publication US9072778B2, “Treatment regimen for N-MYC, c-MYC, and L-MYC amplified and overexpressed tumors” (UNIVERSITY OF HAWAII, priority 2005, dated 2015).

Assays:
[1] = system: NMB-7 cells; experiment: Polyamine pool analysis in inhibitor-treated NMB-7 cells; assay type: cell-based, human; conditions: DFMO = 5 mM, SAM486A = 10 μM, Spd = 10 μM
Protocol: Combined inhibition of both enzymes decreased polyamine pools to various degrees, and exogenous supplementation of Spd (10 μM) to cell cultures led to a substantial increase in Spd. […] In untreated control cells, the levels of Put and Spd decreased during exponential cell growth and proliferation (day 0 to day 3), which is also consistent with a decrease in ODC and AdoMetDC enzyme activities (FIGS. 3d and 3e). Spm levels decreased in untreated LAN-1 cells and remained the same in NMB-7 cells (Table 1).
(§1) Human NB cell lines were provided by Dr. Robert Seeger (LAN-1; University of California, Los Angeles, Calif.), Dr. Nai-Kong Cheung (NMB-7; Memorial Sloan-Kettering Cancer Center, NY), and the American Type Culture Collection (SK-N-SH; ATCC, Manassas, Va.). Cells were maintained in RPMI 1640 (Biosource, Rockeville, Md.) containing 10% heat-inactivated fetal bovine serum (FBS) (Invitrogen, Carlsbad, Calif.), penicillin (100 IU/ml) and streptomycin (100 μg/ml). If cells were treated with exogenous Spd, 1 mM of aminoguanidine was included as an inhibitor of serum polyamine oxidation. […] For growth and proliferation inhibition, polyamine pool, and cell cycle studies, 10 μM Spd was added together with inhibitors, and cells were assayed on days 2 and/or 3.
Intracellular polyamines were extracted from cell pellets by a method known in the art. In brief, cells were washed and centrifuged. After sonication and centrifugation, 250 μl of supernatant, 100 μl of saturated sodium carbonate, and 300 μl of 25 mg/ml dansyl chloride (5-dimethylamino-naphthalene-1-sulfonyl chloride) (Fluka, Switzerland) were mixed and analyzed via reverse phase HPLC using a C18 reverse-phase analytical column (Waters, Milford, Mass.). The effluent from the column was monitored at 510 nm (excitation at 330 nm). Polyamine levels were determined using appropriate standards. The samples were normalized in 0.2 N sodium hydroxide and the amount of total protein per sample was measured using the Bradford assay (70). Polyamine levels are expressed as nmol per mg of total cellular protein.

[2] = target: T1, ODC (Homo sapiens, UniProt P11926); experiment: ODC enzyme activity in lysates of inhibitor-treated NB cells; assay type: cell-based; conditions: DFMO = 5 mM, SAM486A = 10 μM, mean ± SD
T1 construct: enzyme activities were measured in cell lysates; endogenous in cells
T1 sequence (P11926 1-461): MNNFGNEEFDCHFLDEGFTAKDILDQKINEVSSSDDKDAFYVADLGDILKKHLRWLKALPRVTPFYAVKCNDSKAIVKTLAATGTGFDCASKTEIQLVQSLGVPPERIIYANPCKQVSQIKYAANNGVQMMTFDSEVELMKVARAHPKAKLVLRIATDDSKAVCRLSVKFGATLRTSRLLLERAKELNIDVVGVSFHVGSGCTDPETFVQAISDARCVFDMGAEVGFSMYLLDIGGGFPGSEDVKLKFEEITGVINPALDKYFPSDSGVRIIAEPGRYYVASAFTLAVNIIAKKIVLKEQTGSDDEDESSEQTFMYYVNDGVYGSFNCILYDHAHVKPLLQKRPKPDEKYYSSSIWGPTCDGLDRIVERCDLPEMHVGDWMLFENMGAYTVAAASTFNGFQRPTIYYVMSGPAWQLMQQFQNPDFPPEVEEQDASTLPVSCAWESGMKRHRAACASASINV
Protocol: as §1
(§2) ODC and AdoMetDC enzyme activities were determined using a standard assay known in the art. In brief, NB cells were washed twice with ice-cold PBS and harvested in 50 mM sodium phosphate buffer (pH 7.2), 0.1 mM EDTA, 2.5 mM DTT, supplemented with 1× protease inhibitor cocktail (Roche Molecular Biochemicals, Indianapolis, Ind.). For the measurement of AdoMetDC activity, cells were harvested in the above buffer supplemented with 2.5 mM Put. Cells were lysed by three freeze/thaw cycles and cell lysates were prepared by centrifugation for 20 minutes at 14,000 rpm and 4° C. ODC activity was measured in a reaction mixture that contained 20 μM L-[1-^14C]ornithine (47.70 mCi/mmol; NEN Life Science Products, Boston, Mass.). AdoMetDC activity was assayed in a reaction mixture that contained 8.2 μM S-adenosyl-L-[carboxy-^14C]methionine (58.0-61.0 mCi/mmol; Amersham Biosciences, Piscataway, N.J.) and 140.1 μM cold S-adenosylmethionine. […] Untreated or SAM486A-treated LAN-1 extracts were assayed for AdoMetDC activity after multiple rounds of sequential dilution with harvest buffer followed by concentration of the extract (Centricon YM-10, Millipore Corporation, Bedford, Mass.) to remove the inhibitor.

[3] = target: T2, AdoMetDC (Homo sapiens, UniProt P17707); experiment: AdoMetDC enzyme activity in lysates of inhibitor-treated NB cells; assay type: cell-based; conditions: for Specific enzyme activity ADOMETDC: DFMO = 5 mM, SAM486A = 10 μM, mean ± SD
T2 construct: processed AdoMetDC α chain (31 kDa) proteins were detected at the expected size in LAN-1 and NMB-7 cells; endogenous in cells; host or cells: LAN-1 and NMB-7 human neuroblastoma cells (LAN-1 only for the Western blot of treated cells)
T2 sequence (P17707 68-334 limits assumed): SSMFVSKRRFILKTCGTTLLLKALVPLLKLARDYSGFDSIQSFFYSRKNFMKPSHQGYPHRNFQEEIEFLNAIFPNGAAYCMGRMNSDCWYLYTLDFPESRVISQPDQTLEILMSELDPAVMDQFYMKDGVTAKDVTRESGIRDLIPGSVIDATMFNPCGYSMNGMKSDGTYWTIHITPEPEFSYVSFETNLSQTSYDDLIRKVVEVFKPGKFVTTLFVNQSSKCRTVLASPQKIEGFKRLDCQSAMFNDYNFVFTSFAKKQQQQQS
T2 sequence (P17707 1-67 limits assumed): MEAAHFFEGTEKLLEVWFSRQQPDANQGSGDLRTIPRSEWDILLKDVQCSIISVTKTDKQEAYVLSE
Protocol: Under identical experimental conditions, AdoMetDC activity was determined.
as §1, §2

[4] = system: NMB-7 cells; experiment: Cell cycle phase distribution (propidium iodide), NMB-7; assay type: cell-based, human; conditions: DFMO = 5 mM, SAM486A = 10 μM, Spd = 10 μM, mean ± SD
Source text: This profile, which is typical for cell cycle arrest at G1, was enhanced by the combination of both inhibitors, with the majority of cells in G1 (˜71-73%), a reduced number of cells in S phase (˜20-28%), and a small portion in G2/M (˜2-7%).
as §1

NCCC[C@](N)(C(=O)O)C(F)F [DFMO, α-difluoromethylornithine]
Polyamine pools PUT ([1]; NMB-7, Day 2): 0.1 NMOL/MG TOTAL PROTEIN | Polyamine pools SPD ([1]; NMB-7, Day 2): 1.9 NMOL/MG TOTAL PROTEIN | Polyamine pools SPM ([1]; NMB-7, Day 2): 9.3 NMOL/MG TOTAL PROTEIN | Polyamine pools PUT ([1]; NMB-7, Day 3): 0.0 NMOL/MG TOTAL PROTEIN | Polyamine pools SPD ([1]; NMB-7, Day 3): 1.4 NMOL/MG TOTAL PROTEIN | Polyamine pools SPM ([1]; NMB-7, Day 3): 8.6 NMOL/MG TOTAL PROTEIN | Specific enzyme activity ODC ([2]; LAN-1, 2 days after treatment): 26 ± 2 % OF CONTROL | Specific enzyme activity ODC ([2]; NMB-7, 2 days after treatment): 25 ± 8 % OF CONTROL | Specific enzyme activity ADOMETDC ([3]; LAN-1, 2 days after treatment): 689 ± 94 % OF CONTROL | Specific enzyme activity ADOMETDC ([3]; NMB-7, 2 days after treatment): 582 ± 67 % OF CONTROL | Cell cycle G1 ([4]; NMB-7, day 2): 60.3 ± 3.9 % TOTAL CELLS | Cell cycle G2/M ([4]; NMB-7, day 2): 8.4 ± 2.9 % TOTAL CELLS | Cell cycle S ([4]; NMB-7, day 2): 31.3 ± 6.5 % TOTAL CELLS | Cell cycle G1 ([4]; NMB-7, day 3): 58.8 ± 2.6 % TOTAL CELLS | Cell cycle G2/M ([4]; NMB-7, day 3): 10.2 ± 3.9 % TOTAL CELLS | Cell cycle S ([4]; NMB-7, day 3): 31.0 ± 6.3 % TOTAL CELLS

N=C(N)c1cccc2c1CC/C2=N\N=C(N)N [SAM486A, 4-amidinoindan-1-one 2′-amidinohydrazone]
Polyamine pools PUT ([1]; NMB-7, Day 2): 69.6 NMOL/MG TOTAL PROTEIN | Polyamine pools SPD ([1]; NMB-7, Day 2): 5.6 NMOL/MG TOTAL PROTEIN | Polyamine pools SPM ([1]; NMB-7, Day 2): 3.9 NMOL/MG TOTAL PROTEIN | Polyamine pools PUT ([1]; NMB-7, Day 3): 259.5 NMOL/MG TOTAL PROTEIN | Polyamine pools SPD ([1]; NMB-7, Day 3): 5.5 NMOL/MG TOTAL PROTEIN | Polyamine pools SPM ([1]; NMB-7, Day 3): 3.6 NMOL/MG TOTAL PROTEIN | Specific enzyme activity ODC ([2]; LAN-1, 2 days after treatment): 240 ± 27 % OF CONTROL | Specific enzyme activity ODC ([2]; NMB-7, 2 days after treatment): 251 ± 42 % OF CONTROL | Specific enzyme activity ADOMETDC ([3]; LAN-1, 2 days after treatment): 169 ± 9 % OF CONTROL | Specific enzyme activity ADOMETDC ([3]; NMB-7, 2 days after treatment): 200 ± 16 % OF CONTROL | increase of measured AdoMetDC activity after sequential dilution and concentration of lysates to remove residual inhibitor ([3]; SAM486A-treated LAN-1 extracts, data not shown): ~100 fold | Cell cycle G1 ([4]; NMB-7, day 2): 54.1 ± 4.3 % TOTAL CELLS | Cell cycle G2/M ([4]; NMB-7, day 2): 9.3 ± 3.2 % TOTAL CELLS | Cell cycle S ([4]; NMB-7, day 2): 36.6 ± 6.0 % TOTAL CELLS | Cell cycle G1 ([4]; NMB-7, day 3): 56.4 ± 6.5 % TOTAL CELLS | Cell cycle G2/M ([4]; NMB-7, day 3): 8.5 ± 1.4 % TOTAL CELLS | Cell cycle S ([4]; NMB-7, day 3): 35.2 ± 7.0 % TOTAL CELLS
